Experimental data as given in US20240270695A1, “COMPOUNDS, COMPOSITIONS AND METHODS OF TREATING DISORDERS” (Chengdu Anticancer Bioscience LTD, priority 2021, published 2024).
Like-named read-outs stand apart in the source and are kept apart here.

System: RPE-Neo or RPE-MYC or RPE-MYC expressing an EGFP-Histone 2B fusion protein
Assay: Phenotypic screening assay (arrest in mitosis, change in DNA content, cell death; GE IN-Cell Analyzer 2000)
Format: cell-based
Conditions: Homo sapiens, compounds 20 nM to 20 μM, 24, 48 or 72 hours
[1] = read-out: Min. Effective conc. for Polyploidy (≥10%)
[2] = min. effective conc., read-out: Mitotic Arrest (≥10%)
[3] = min. effective conc., read-out: Cell Death (>30%)

| Compound | minimal effective concentration [1] [µM] | minimal effective concentration [2] [µM] | minimal effective concentration [3] [µM] |
| --- | --- | --- | --- |
| COC(=O)C1=C(O)c2ccccc2N(Cc2ccccc2)C(=O)C1 [Example 1, Methyl 1-benzyl-5-hydroxy-2-oxo-2,3-dihydro-1H-benzo[b]azepine-4-carboxylate] | 30 to 1000 | 30 to 1000 |  |
| COC(=O)C1=C(O)c2ccccc2N(Cc2cccc(C)c2)C(=O)C1 [Example 5, Methyl 5-hydroxy-1-(3-methylbenzyl)-2-oxo-2,3-dihydro-1H-benzo[b]azepine-4-carboxylate] | 30 to 1000 | 30 to 1000 | 30 to 1000 |
| COC(=O)C1=C(O)c2ccccc2N(Cc2cc(C)cc(C)c2)C(=O)C1 [Example 6, Methyl 1-(3,5-dimethylbenzyl)-5-hydroxy-2-oxo-2,3-dihydro-1H-benzo[b]azepine-4-carboxylate] | 30 to 1000 | 30 to 1000 | 30 to 1000 |
| COC(=O)C1=C(O)c2ccccc2N(Cc2ccc(C)cc2)C(=O)C1 [Example 7, Methyl 5-hydroxy-1-(4-methylbenzyl)-2-oxo-2,3-dihydro-1H-benzo[b]azepine-4-carboxylate] | 0.001 to 1 | 0.001 to 1 | 0.001 to 1 |
| COC(=O)C1=C(O)c2ccccc2N(Cc2ccccc2F)C(=O)C1 [Example 9, Methyl 1-(2-fluorobenzyl)-5-hydroxy-2-oxo-2,3-dihydro-1H-benzo[b]azepine-4-carboxylate] | 30 to 1000 | 30 to 1000 |  |
| COC(=O)C1=C(O)c2ccccc2N(Cc2ccc(F)cc2)C(=O)C1 [Example 10, Methyl 1-(4-fluorobenzyl)-5-hydroxy-2-oxo-2,3-dihydro-1H-benzo[b]azepine-4-carboxylate] | 30 to 1000 | 30 to 1000 |  |
| COC(=O)C1=C(O)c2ccccc2N(Cc2cnc3ccccc3c2)C(=O)C1 [Example 12, Methyl 5-hydroxy-2-oxo-1-(quinolin-3-ylmethyl)-2,3-dihydro-1H-benzo[b]azepine-4-carboxylate] |  |  | 30 to 1000 |
| COC(=O)C1=C(O)c2ccccc2N(Cc2ccc3ccccc3c2)C(=O)C1 [Example 14, Methyl 5-hydroxy-1-(naphthalen-2-ylmethyl)-2-oxo-2,3-dihydro-1H-benzo[b]azepine-4-carboxylate] | 1 to 10 | 1 to 10 | 1 to 10 |
| COC(=O)C1=C(O)c2ccccc2N(Cc2c(C)cccc2C)C(=O)C1 [Example 16, Methyl 1-(2,6-dimethylbenzyl)-5-hydroxy-2-oxo-2,3-dihydro-1H-benzo[b]azepine-4-carboxylate] |  |  | 30 to 1000 |
| COC(=O)C1=C(O)c2ccccc2N(Cc2cccc(C)c2C)C(=O)C1 [Example 17, Methyl 1-(2,3-dimethylbenzyl)-5-hydroxy-2-oxo-2,3-dihydro-1H-benzo[b]azepine-4-carboxylate] | 1 to 10 | 1 to 10 | 1 to 10 |
| COC(=O)C1=C(O)c2ccccc2N(Cc2ccc(F)cc2F)C(=O)C1 [Example 18, Methyl 1-(2,4-difluorobenzyl)-5-hydroxy-2-oxo-2,3-dihydro-1H-benzo[b]azepine-4-carboxylate] | 30 to 1000 | 30 to 1000 | 30 to 1000 |
| COC(=O)C1=C(O)c2ccccc2N(Cc2cc(F)ccc2F)C(=O)C1 [Example 19, Methyl 1-(2,5-difluorobenzyl)-5-hydroxy-2-oxo-2,3-dihydro-1H-benzo[b]azepine-4-carboxylate] | 30 to 1000 | 30 to 1000 | 30 to 1000 |
| COC(=O)C1=C(O)c2ccccc2N(Cc2cc(F)cc(F)c2)C(=O)C1 [Example 20, Methyl 1-(3,5-difluorobenzyl)-5-hydroxy-2-oxo-2,3-dihydro-1H-benzo[b]azepine-4-carboxylate] | 30 to 1000 | 30 to 1000 | 30 to 1000 |
| COC(=O)C1=C(O)c2ccccc2N(Cc2cccc(F)c2F)C(=O)C1 [Example 22, Methyl 1-(2,3-difluorobenzyl)-5-hydroxy-2-oxo-2,3-dihydro-1H-benzo[b]azepine-4-carboxylate] |  |  | 30 to 1000 |
| COC(=O)C1=C(O)c2ccccc2N(Cc2cccc(OC)c2)C(=O)C1 [Example 27, Methyl 5-hydroxy-1-(3-methoxybenzyl)-2-oxo-2,3-dihydro-1H-benzo[b]azepine-4-carboxylate] | 10 to 30 | 10 to 30 |  |
| COC(=O)C1=C(O)c2ccccc2N(Cc2cc(F)c(F)c(F)c2)C(=O)C1 [Example 28, Methyl 5-hydroxy-2-oxo-1-(3,4,5-trifluorobenzyl)-2,3-dihydro-1H-benzo[b]azepine-4-carboxylate] |  |  | 30 to 1000 |
| COC(=O)C1=C(O)c2ccccc2N(Cc2ccc(C)cc2C)C(=O)C1 [Example 29, Methyl 1-(2,4-dimethylbenzyl)-5-hydroxy-2-oxo-2,3-dihydro-1H-benzo[b]azepine-4-carboxylate] | 1 to 10 | 1 to 10 | 1 to 10 |
| COC(=O)C1=C(O)c2ccccc2N(Cc2ccc(C(C)C)cc2)C(=O)C1 [Example 30, Methyl 5-hydroxy-1-(4-isopropylbenzyl)-2-oxo-2,3-dihydro-1H-benzo[b]azepine-4-carboxylate] | 10 to 30 | 10 to 30 | 10 to 30 |
| COC(=O)C1=C(O)c2ccccc2N(Cc2ccc(OC(F)F)cc2)C(=O)C1 [Example 33, Methyl 1-(4-(difluoromethoxy)benzyl)-5-hydroxy-2-oxo-2,3-dihydro-1H-benzo[b]azepine-4-carboxylate] | 1 to 10 | 1 to 10 | 1 to 10 |
| COC(=O)C1=C(O)c2ccccc2N(Cc2ccc(OC)cc2)C(=O)C1 [Example 34, Methyl 5-hydroxy-1-(4-methoxybenzyl)-2-oxo-2,3-dihydro-1H-benzo[b]azepine-4-carboxylate] | 0.001 to 1 | 0.001 to 1 | 0.001 to 1 |
| COC(=O)C1=C(O)c2ccccc2N(Cc2ccccc2C)C(=O)C1 [Example 35, Methyl 5-hydroxy-1-(2-methylbenzyl)-2-oxo-2,3-dihydro-1H-benzo[b]azepine-4-carboxylate] | 30 to 1000 | 30 to 1000 | 30 to 1000 |
| COC(=O)C1=C(O)c2ccccc2N(Cc2ccc(C)c(C)c2)C(=O)C1 [Example 36, Methyl 1-(3,4-dimethylbenzyl)-5-hydroxy-2-oxo-2,3-dihydro-1H-benzo[b]azepine-4-carboxylate] | 10 to 30 | 10 to 30 | 10 to 30 |
| CCc1ccc(CN2C(=O)CC(C(=O)OC)=C(O)c3ccccc32)cc1 [Example 37, Methyl 1-(4-ethylbenzyl)-5-hydroxy-2-oxo-2,3-dihydro-1H-benzo[b]azepine-4-carboxylate] | 0.001 to 1 | 0.001 to 1 | 0.001 to 1 |
